Measurements as given in patent publication US10682316B2 (NOVA SOUTHEASTERN UNIVERSITY, priority 2010, dated 2020).
“And” between values parts separate entries of the source, which are not always exact repeats. Identical values can stand only once. “Also recorded” adds a separate entry of the source. Like-named read-outs stand apart in the source and are kept apart here.

What was measured:
[1] = Visual observation of discoloration/stability after processing; format: physicochemical; settings: epinephrine bitartrate compared with epinephrine base
From the text: The main problem was discoloration (a brown color formed) due to degradation.

[2] = Particle size measurement before and after size reduction (Mastersizer, NiComp 370, Zetasizer); format: physicochemical; settings: epinephrine base
Protocol: These techniques involve the use of oversaturated solutions of various solvents, particularly water and isopropanol, at various temperatures and pressures ranging from about 8,000 psi to 30,000 psi and to about 8.3° to 43.3° C. under various passes. […] The particles were lyophilized (freeze-dried) using a bench top lyophilizer (ART Inc.).

Compound	Amount Dissolved % (solubility in acetone) [%]	Amount Dissolved % (solubility in acetonitrile) [%]	Amount Dissolved % (solubility in choloroform) [%]	Amount Dissolved % (solubility in dichloromethane (DCM)) [%]	Amount Dissolved % (solubility in ethyl acetate) [%]	Amount Dissolved % (solubility in hexane) [%]	Amount Dissolved % (solubility in isopropyl alcohol) [%]	Amount Dissolved % (solubility in methanol) [%]	Amount Dissolved % (solubility in tetrahydrofuran (THF)) [%]	Stability / discoloration under fabrication conditions (nanomilling) [1]	Amount Dissolved % (solubility in water) [%]	mean±SD size before size reduction ([2]; Mastersizer (FIG. 3)) [μm]	Size Before Fabrication (nm) ([2]; Mastersizer, three measurements and mean)
CNC[C@H](O)c1ccc(O)c(O)c1 [Epinephrine Bit, epinephrine bitartrate]	1.56	0.77	0.09	0.00	0.63	0.03	0.62	10.45	7.76	more stable than the epinephrine base; also recorded: did not show any discoloration	–	–	–
CNC[C@H](O)c1ccc(O)c(O)c1 [Epinephrine Base, epinephrine]	–	–	–	–	–	–	–	–	–	–	2.67	32.91±0.33	33030 nm and 32530 nm and 33160 nm
